Assay results as given in patent publication US11065266B2, “Method of treating melanoma using an inhibitor of an atypical protein kinase C” (UNIVERSITY OF SOUTH FLORIDA, priority 2016, dated 2021).

Legend:
PCS-200-013 normal cells = assay: WST-1 assay for cell viability and cytotoxicity; type: cell-based, human; details: treated at IC50, 3 days
Experimental: (§1) Approximately 4×10^3 cells (PCS-200-013, SK-MEL-2 and MeWo) were cultured in a 96 well plate. […] This IC50 was obtained based on the cell viability counts in the previous experiments. Additional doses of sterile water or inhibitor were supplied every 24 h during 3 day incubation period. At the end of 3 day treatment, media were removed and fresh media (100 μL) were added with 4-[3-(4-iodophenyl)-2-(4-nitropheny))-2H-5-tetrazolio]-1,3-benzene disulfonate (WST-1) reagent (10 μL) to each well. The absorbance was measured at 450 nm for every 0.5 hour up to 3 hours using the Synergy HT microplate reader from Biotek (Winooski, Vt.).
(§2) WST-1 assay was performed to determine the in-vitro cytotoxicity of ACPD and DNDA on normal and malignant cell lines. Measured absorbance at 450 nm is directly proportional to the number of cells present. Cells produce a water soluble formazan with WST-1 as a result of their mitochondrial dehydrogenase activity. WST-1 assay is preferred over 3-(4,S-Dimethyl-2-thiazolyl)-2, 5-diphenyl-2Htetrazolium bromide (MTT) test since MTT needs to add acidic isopropanol to dissolve formazan which gives an additional toxicity to cells.

SK-MEL-2 cells [1] = assay: WST-1 assay for cell viability and cytotoxicity; type: cell-based, human; details: treated at IC50, 3 days
Experimental: as §1, §2

MeWo cells = assay: BME invasion assay (Calcein-AM fluorescence); type: cell-based, human; details: 2.5 μM, vs control
Experimental: (§3) This invasion assay was performed to investigate the effect of ACPD and DNDA on malignant melanoma cell invasion in vitro. Even though it is similar to the Boyden chamber assay, it avoids scraping off the Matrigel and staining to assess migrated number of cells through filter. […] Migrated cells were stained with a fluorescent marker, Calcein-AM. Live cells cleave the ester (AM) of the molecule in order to produce fluorescence. Thus, the amount of fluorescence accumulated in the bottom chamber is proportional to the number of invaded cells. The relative fluorescent units (excitation at 485 and emission at 528 nm) after 2 h exposure were reported for inhibitor treatments for both SK-MEL-2 and MeWo cell lines compared to controls (FIG. 8D).

SK-MEL-2 cells [2] = assay: BME invasion assay (Calcein-AM fluorescence); type: cell-based, human; details: 2.5 μM, vs control
Experimental: as §3

PKM-ζ = biological target: T1, PKM-ζ (Homo sapiens, UniProt Q05513); assay: PKC activity assay (phosphorylation of myelin basic protein); type: biochemical
T1 construct: proteolytic cleavage of N-regulatory domain and the C-terminal catalytic domain of PKC-ζ
T1 sequence (Q05513 1-409 isoform Q05513-2): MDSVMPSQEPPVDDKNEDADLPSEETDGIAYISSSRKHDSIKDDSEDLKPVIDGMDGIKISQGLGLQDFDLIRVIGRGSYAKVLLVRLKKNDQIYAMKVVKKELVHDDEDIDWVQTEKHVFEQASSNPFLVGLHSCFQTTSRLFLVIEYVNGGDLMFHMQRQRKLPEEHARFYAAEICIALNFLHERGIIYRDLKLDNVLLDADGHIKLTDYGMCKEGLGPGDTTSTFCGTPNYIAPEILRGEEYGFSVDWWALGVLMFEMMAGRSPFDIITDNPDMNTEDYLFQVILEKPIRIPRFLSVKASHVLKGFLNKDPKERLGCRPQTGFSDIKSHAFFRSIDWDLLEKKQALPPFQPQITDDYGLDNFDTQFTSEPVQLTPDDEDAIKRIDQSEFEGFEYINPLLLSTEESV
Experimental: (§4) PKC activity assay was conducted by monitoring the phosphorylation of myelin basic protein (MBP), a known substrate for PKCs. The detailed procedure was performed as described in Ling, D. S. F. et al. (2002) for PKC-ι and PKM-ζ [37].
(§5) PKC activity assay was performed by suspending 0.5 μg of PKC-ζ and PKC-ι separately in 200 μL of PKC kinase buffer to test the ability of PKC-ζ and PKC-ι of phosphorylating and immunoprecipitating HSF-1 of the SK-MEL-2 cells and PCS-200-013 cells. The PKC kinase buffer composition was 20 mM Tris-HCL (pH of 7.5), 6 mM Magnesium acetate, phosphotidylserine ([…], 20 μL of 10 mg/mL solution), ATP (0.0045 mg/mL) and also the desired inhibitors, wherever appropriate (ICA-1, ACPD, DNDA and ζ-Stat). The inhibitor was used in two different concentrations as 1 μM and 0.5 μM. The reaction was terminated after incubation for 5 minutes at 30° C. by addition of sample loading buffer. Samples were then separated by PAGE and immunoblotted against anti-PKC antibodies (either PKC-ι or PKC-ζ) and against phosphospecific HSF-1 antibodies. Samples were also probed against anti-HSF-1 antibody to determine that the protein immunoprecipitaed was HSF-1. The signal was visualized using enhanced chemiluminescence.
(§6) The activity of DNDA (FIG. 2) was determined for a series of concentrations (0-20 μM) using recombinant active PKC-ι or PKM-ζ in the presence of MBP (5 μg). The maximum inhibition of PKC-ζ was 40% and reached at 2 (P≤0.05). Inhibition remained the same upon increasing the concentration PKM-ζ is an active form of PKC-ζ found in human brain due to proteolytic cleavage of N-regulatory domain and the C-terminal catalytic domain of PKC-ζ [27-29].

recombinant active PKC-ι = biological target: T2, recombinant active PKC-ι (Homo sapiens, UniProt P41743); assay: as above; type: biochemical
T2 sequence (P41743 1-596): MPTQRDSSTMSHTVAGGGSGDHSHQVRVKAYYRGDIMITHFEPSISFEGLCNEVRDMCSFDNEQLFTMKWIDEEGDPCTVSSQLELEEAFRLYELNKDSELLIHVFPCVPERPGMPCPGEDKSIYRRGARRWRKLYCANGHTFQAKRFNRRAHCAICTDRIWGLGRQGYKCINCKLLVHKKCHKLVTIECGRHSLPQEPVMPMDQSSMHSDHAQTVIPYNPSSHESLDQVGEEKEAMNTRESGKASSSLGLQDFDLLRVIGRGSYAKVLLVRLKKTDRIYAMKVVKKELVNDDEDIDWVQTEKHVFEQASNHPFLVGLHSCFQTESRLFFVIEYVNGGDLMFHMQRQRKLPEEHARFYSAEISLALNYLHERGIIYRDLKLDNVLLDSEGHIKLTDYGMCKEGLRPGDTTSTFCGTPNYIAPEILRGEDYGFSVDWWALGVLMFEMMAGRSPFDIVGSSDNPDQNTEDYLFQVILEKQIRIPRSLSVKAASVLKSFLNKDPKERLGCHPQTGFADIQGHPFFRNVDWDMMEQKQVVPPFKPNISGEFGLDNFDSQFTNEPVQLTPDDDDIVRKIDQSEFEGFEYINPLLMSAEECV
Experimental: as §4, §5, §6

maximum inhibition of PKC-ζ (PKM-ζ; reached at 2 (unit not given), series 0-20 μM, MBP 5 μg) [%] | inhibition at 0.5 µM (recombinant active PKC-ι; reached at 0.5 μM, series 0-20 μM, MBP 5 μg, read-out: maximum inhibition of PKC-ι) [%] | inhibition of PKM-ζ activity (PKM-ζ; kinase activity assay) | effect on PKC-ι in kinase activity assay (recombinant active PKC-ι) | SMILES | WST-1 absorbance at 450 nm, effect on normal cells (PCS-200-013 normal cells) | WST-1 absorbance at 450 nm, effect (SK-MEL-2 cells [1]) | reduction of invasion (MeWo cells) [%] | reduction of invasion (SK-MEL-2 cells [2]) [%]
 |  |  |  | CC(=O)C1=C(O)CCC1=O [ACPD, 2-acetyl-1,3-cyclopentanedione] | did not show a significant effect | did not show a significant effect | 21 | 24
40 | ~15 |  |  | Nc1c(S(=O)(=O)O)cc2cc(S(=O)(=O)O)ccc2c1N [DNDA, 3,4-diamino-2,7-naphthalenedisulfonic acid] | did not show a significant effect | significant decrease in absorption | 32 | 32
 |  | more than 50% | does not effect | O=S(=O)(O)c1cc(O)c2c(S(=O)(=O)O)cc(S(=O)(=O)O)cc2c1 [ζ-Stat, 8-hydroxy-1,3,6-naphthalenetrisulfonic acid] |  |  |  | 
